From ChEMBL document CHEMBL1135239, “Imidazo[5,1-f]triazin-4(3H)-ones, a new class of potent PDE 5 inhibitors” (Bioorg Med Chem Lett, 2002)

Assays:
[1] = target: Phosphodiesterase 3 (Homo sapiens, UniProt Q14432+Q13370); assay: Inhibition of Phosphodiesterase 3; format: protein assay
[2] = target: Phosphodiesterase 4 (Homo sapiens, UniProt P27815+Q08499+Q07343+Q08493); assay: Inhibition of Phosphodiesterase 4; format: protein assay
[3] = target: cGMP-specific 3',5'-cyclic phosphodiesterase (Homo sapiens, UniProt O76074)
[4] = target: Phosphodiesterase 1 (Bos taurus, UniProt Q01061+P14100); assay: Inhibition of Phosphodiesterase 1; format: protein assay
[5] = tested on: Oryctolagus cuniculus; assay: In vivo minimal effective dose for inhibition of phosphodiesterase in conscious rabbit model by peroral administration; format: functional; conditions: po, read-out: MED

Compound | IC50 [1] [nM] | IC50 [2] [nM] | IC50 [3] [nM] | IC50 [4] [nM] | minimal effective dose [5] [mg/kg]
CCCOc1ccccc1-c1nc2c(ncn2CCC)c(=O)[nH]1 | > 500 | > 500 | 10 |  | 
CCCc1nc(C)c2c(=O)[nH]c(-c3cc(S(=O)(=O)N4CCN(C)CC4)ccc3OCC)nn12 | > 500 |  |  | 300 | 
CCCOc1ccc(S(=O)(=O)N2CCN(C)CC2)cc1-c1nc2c(ncn2CCC)c(=O)[nH]1 | > 500 | > 500 |  |  | 
CCCc1nc(C)c2c(O)nc(-c3cc(S(=O)(=O)N4CCN(CC)CC4)ccc3OCC)nn12.Cl [VARDENAFIL HYDROCHLORIDE] |  |  |  | 180 | 3

Second part, led by results:

IC50 [1] [nM] | IC50 [2] [nM] | IC50 [3] [nM] | IC50 [4] [nM] | Compound | minimal effective dose [5] [mg/kg]
> 500 | > 500 | 5 | 300 | CCCc1nc(C)c2c(=O)[nH]c(-c3ccccc3OCC)nn12 | 
> 500 | > 500 | 40 |  | CCCc1nn(C)c2c(=O)[nH]c(-c3ccccc3OCC)nc12 | 
